Measured values published in US9090594B2, “PIM kinase inhibitors and preparation methods and use in medicinal manufacture thereof” (JIKAI BIOSCIENCES, INC., priority 2011, dated 2015).

Each compound was assayed against T1, PIM-1 (Homo sapiens, UniProt P11309) (assay: PIM Kinase Activity Assay-IMAP Fluorescence Polarization Assay (PIM-1)). Conditions: 3 μM concentration.
T1 construct: purchased Millipore Corporation 14-573
Format: biochemical
Experimental: In the present invention, the PIM activities of the compounds were tested by BioDuro (Building E, No. 29 Life Science Park Road, Changping District, Beijing, 102206, P.R. China). The method used for testing is PIM Kinase Activity Assay-IMAP Fluorescence Polarization Assay
PIM Kinase Activity Assay-IMAP Fluorescence Polarization Assay
PIM Is a serine/threonine protein kinase, they can phosphorylate 5-FAM labeled small peptide substrates. Fluorescence polarization is less for non-phosphorylated substrates since that can not bind to the binder (metal binding nanoparticles). On the other hand, fluorescence polarization is more for phosphorylated substrates since that can bind to the binder. The level of 5-FAM labeled small peptide substrates phosphorylation reflects the activities of PIM kinase. By measuring their ability of inhibiting PIM kinase of the compounds of the present invention, their activities of inhibiting PIM kinases can be determined.
EnVision (PerkinElmer, Waltham, Mass.)
PIM1 (Millipore Cat. #14-573) (Millipore Corporation, Billerica, Mass.)
5-FAM labeled peptide (5-FAM-RSRHSSYPAGT, AnaSpec Cat.#63801) (AnaSpec Inc., Fremont, Calif.)
IMAP FP Screening Express kit (IMAP FP Screening kit) (Molecular Devices Cat.# R8127) (Molecular Devices, Sunnyvale, Calif.)
a) 10 mM compound stock solution is diluted to appropriate concentration with 100% DMSO, then diluted 10 fold to targeted concentration with test butter to keep DMSO concentration at 10%
1 ul of compound solution and 4 ul of enzyme (PIM-1final concentration 0.025 nM, PIM-2 concentration 3 nM) is incubated at 23° C. for 15 min, 2.5 ul ATP (for PIM-1 and PIM-2, the final ATP concentrations are 30 uM and 5 uM respectively) 2.5 ul 5-FAM labeled peptide (final concentration 100 nM) was added to start the reaction. The reaction is run at 23° C. for 60 min. DMSO is used in place of compound stock solution as maximum reference and assay buffer is used in place of enzyme as minimum reference. c) add 30 ul IMAP binding reagent (containing 75% IMAP Buffer A, 25% IMAP Buffer B, 1/600 dilution of beads) to stop the reaction, incubated at room temperature for 60 min d) Measure fluorescence polarization, excitation wavelength: 485 nm, emission wavelength 530 nm. 6. Data Process IC50 values were calculated using Graphpad Prism®.

T1 sequence (P11309 whole entry): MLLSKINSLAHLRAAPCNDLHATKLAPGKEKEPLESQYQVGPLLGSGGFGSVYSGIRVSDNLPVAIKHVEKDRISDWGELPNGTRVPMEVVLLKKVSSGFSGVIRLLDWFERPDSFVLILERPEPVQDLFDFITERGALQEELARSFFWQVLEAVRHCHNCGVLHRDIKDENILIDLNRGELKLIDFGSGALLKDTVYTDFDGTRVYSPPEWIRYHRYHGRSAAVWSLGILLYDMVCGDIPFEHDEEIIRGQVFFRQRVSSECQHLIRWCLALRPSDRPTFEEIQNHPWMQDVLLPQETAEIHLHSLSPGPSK

Structure (SMILES)	inhibition at 3 µM [%]
O=C(Nc1cncnc1OC1CCNCC1)c1coc(-c2c(F)cccc2F)n1 [Compound 57, 2-(2,6-difluorophenyl)-N-(4-(piperidin-4-yloxy)pyrimidin-5-yl)oxazole-4-carboxamide]	20 to 50
O=C(Nc1cncnc1OC1CCNCC1)c1csc(C2CCNCC2)n1 [Compound 59, 2-(piperidin-4-yl)-N-(4-(piperidin-4-yloxy)pyrimidin-5-yl)thiazole-4-carboxamide]	20 to 50
Nc1sc(-c2c(F)cccc2F)nc1C(=O)Nc1cncnc1S(=O)(=O)CCCO [Compound 63, 5-amino-2-(2,6-difluorophenyl)-N-(4-((3-hydroxypropyl)sulfonyl)pyrimidin-5-yl)thiazole-4-carboxamide]	20 to 50

Other lines, results leading:

inhibition at 3 µM [%]	Structure (SMILES)
20 to 50	CC(C)c1nc(C(=O)Nc2cncnc2OC2CCNCC2)cs1 [Compound 33, 2-isopropyl-N-(4-(piperidin-4-yloxy)pyrimidin-5-yl)thiazole-4-carboxamide]
20 to 50	O=C(Nc1cncnc1OC1CCNCC1)c1csc(N2CCOCC2)n1 [Compound 60, 2-morpholino-N-(4-(piperidin-4-yloxy)pyrimidin-5-yl)thiazole-4-carboxamide]
20 to 50	O=C(Nc1cncnc1OC1CCNCC1)c1csc(N2CCCCC2)n1 [Compound 61, 2-(piperidin-1-yl)-N-(4-(piperidin-4-yloxy)pyrimidin-5-yl)thiazole-4-carboxamide]
20 to 50	CC(=O)Nc1nc(C(=O)Nc2cncnc2OC2CCNCC2)cs1 [Compound 62, 2-acetamido-N-(4-(piperidin-4-yloxy)pyrimidin-5-yl)thiazole-4-carboxamide]
